One series addresses T1, E. coli β-galactosidase (Escherichia coli, UniProt P00722).
T1 construct: purchased Sigma G4155
Nature of the series: in vitro. The class given is biochemical. The settings on record: PBS pH 7.4, 37° C., HPLC, read-out: TG release t1/2(min). Here is the method: Compound A-1, A-2, or B-1 was dissolved in DMSO and mixed with PBS buffer solution to prepare 500 μM stock solution (1% DMSO). Methyl phenyl sulfone (MPS, CAS Number 3112-85-4, internal standard) was dissolved in PBS buffer solution to make 500 μM solution. 790 μL of PBS buffer (pH 7.4), 10 μL of the solution of compound A-1, A-2, or B-1 (500 μM) and 200 μL of MPS solution (500 μM) were mixed. Enzyme solution (E. coli β-galactosidase, Sigma G4155, 18 μL of 1 mg/mL) was added to 882 μL of the reaction mixture. When comparing with human p-galactosidase, 116 μL of the enzyme solution (0.1 mg/mL) was added, and solutions of compound A-1, A-2, or B-1 (140 μL), MPS (140 μL), and the buffer solution (533 μL, pH 7.4) were mixed.
The reaction mixture was incubated at 37° C. The enzyme reaction solution was aliquoted at 0 min before the reaction and at a predetermined time after the reaction, wherein each aliquot was 70 μL. The remaining compound A-1, A-2, or B-1, MPS, and the material liberated by the enzyme reaction were quantitatively analyzed by HPLC.

The test system of a further series is NCI-N87 cancer cells. Nature of the series: Cell cytotoxicity of conjugates (MTT), NCI-N87. The series is classed as cell-based. The settings on record: NCI-N87, 72 hours of incubation. How it is done:
(§1) NCI-N87, SK-BR3 cancer cells were seeded in 96-well plates at a density of 5,000 cells per well in 100 μL of medium, and cultured for 24 hours. The eight compounds obtained in Example 55 and T-DM1 were treated by serial dilutions of 1:5 from 50 nM to 0.000128 nM. After 72 hours of incubation, 0.2 mL of 3-(4,5-dimethylthiazol-2-yl)-2,5-diphenyltetrazolium bromide (MTT) dye, dissolved in PBS buffer solution (5 mg/mL), was added to each well of the plates. The formazans formed by reduction of the MTT dye by mitochondrial oxidoreductases in the living cells were dissolved in DMSO, and measured using the absorbance at 550 nm.

The next series deals with SK-BR3 cancer cells. Nature of the series: Cell cytotoxicity of conjugates (MTT), SK-BR3. The class given is cell-based. The settings on record: SK-BR3, 72 hours of incubation. Here is the method:
as §1

T1 sequence (P00722 2-1024): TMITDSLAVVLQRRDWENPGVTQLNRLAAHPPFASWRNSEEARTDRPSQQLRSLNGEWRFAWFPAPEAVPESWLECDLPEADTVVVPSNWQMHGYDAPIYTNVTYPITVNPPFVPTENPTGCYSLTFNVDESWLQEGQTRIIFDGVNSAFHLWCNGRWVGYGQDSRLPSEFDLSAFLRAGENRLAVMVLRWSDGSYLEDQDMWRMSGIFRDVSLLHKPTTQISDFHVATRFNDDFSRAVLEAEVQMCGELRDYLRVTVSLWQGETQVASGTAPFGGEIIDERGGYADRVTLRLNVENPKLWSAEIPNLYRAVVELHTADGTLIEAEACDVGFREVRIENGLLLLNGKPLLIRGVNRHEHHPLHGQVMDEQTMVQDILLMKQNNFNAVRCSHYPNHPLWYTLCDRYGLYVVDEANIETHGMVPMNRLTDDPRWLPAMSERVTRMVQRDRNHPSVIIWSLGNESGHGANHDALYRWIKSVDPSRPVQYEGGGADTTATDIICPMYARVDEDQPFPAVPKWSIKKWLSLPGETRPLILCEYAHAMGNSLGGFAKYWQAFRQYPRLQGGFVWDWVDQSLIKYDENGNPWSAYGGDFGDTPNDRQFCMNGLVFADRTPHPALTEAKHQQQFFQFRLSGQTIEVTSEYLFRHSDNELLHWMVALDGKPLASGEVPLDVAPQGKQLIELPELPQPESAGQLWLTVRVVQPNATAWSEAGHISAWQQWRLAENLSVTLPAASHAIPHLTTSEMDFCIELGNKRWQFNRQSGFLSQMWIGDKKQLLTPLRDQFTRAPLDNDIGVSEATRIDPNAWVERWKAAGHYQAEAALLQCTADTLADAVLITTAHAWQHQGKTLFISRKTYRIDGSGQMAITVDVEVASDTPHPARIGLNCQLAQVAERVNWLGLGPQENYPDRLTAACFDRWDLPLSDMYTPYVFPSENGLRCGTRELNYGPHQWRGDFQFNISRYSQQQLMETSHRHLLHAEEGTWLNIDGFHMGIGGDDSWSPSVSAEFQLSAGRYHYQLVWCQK

As for `CNC(=O)[C@H](Cc1ccc(OS(=O)(=O)Cc2ccc(OC3O[C@H](CO)[C@H](O)[C@H](O)[C@H]3O)cc2)cc1)NC(=O)OC(C)(C)C` (some centres unmarked) [Compound A-1], on E. coli β-galactosidase, the half-life at 4.9 μM is less than 5 min.
On to `CNC(=O)[C@H](Cc1ccc(OS(=O)(=O)Cc2ccc(OC3O[C@H](CO)[C@H](O)[C@H](O)[C@H]3O)c(C(=O)NCCOCCOCCOCCN=[N+]=[N-])c2)cc1)NC(=O)OC(C)(C)C` (some centres unmarked) [Compound A-2], for which the half-life at 4.9 μM on E. coli β-galactosidase is less than 10 min.
The same measure, in the same setting: the result for `C[N+]1(Cc2ccc(OS(=O)(=O)Cc3ccc(OC4O[C@H](CO)[C@H](O)[C@H](O)[C@H]4O)cc3)cc2)CCCC[C@@H]1C(=O)Nc1ccccc1` (some centres unmarked) [Compound B-1] reads less than 5 min.
For orientation: IC50 means the concentration at which inhibition is half-maximal. Read a low IC50 as inhibition by little substance. T-DM1: the IC50 with NCI-N87 cancer cells is 0.766 nM; in the series with SK-BR3 cancer cells, 0.042 nM.

These data come from US20220118104A1, “COMPOUNDS COMPRISING CLEAVABLE LINKER AND USES THEREOF” (IntoCell, Inc., priority 2019, published 2022).
